In general, EC50 refers to the concentration at which the effect is half-maximal.

For 21 compounds, EC50 results are on record in US8563714B2, “Bridged spiro [2.4] heptane derivatives as ALX receptor and/or FPRL2 agonists” (Actelion Pharmaceuticals Ltd., priority 2009, dated 2013).

One experiment deals with T1, human FPRL2 (Homo sapiens, UniProt P25089).
T1 construct: expressed in transfected cells; host or cells: HEK293 (HEK293-hFPRL2-Gα16)
T1 sequence (P25089 1-353): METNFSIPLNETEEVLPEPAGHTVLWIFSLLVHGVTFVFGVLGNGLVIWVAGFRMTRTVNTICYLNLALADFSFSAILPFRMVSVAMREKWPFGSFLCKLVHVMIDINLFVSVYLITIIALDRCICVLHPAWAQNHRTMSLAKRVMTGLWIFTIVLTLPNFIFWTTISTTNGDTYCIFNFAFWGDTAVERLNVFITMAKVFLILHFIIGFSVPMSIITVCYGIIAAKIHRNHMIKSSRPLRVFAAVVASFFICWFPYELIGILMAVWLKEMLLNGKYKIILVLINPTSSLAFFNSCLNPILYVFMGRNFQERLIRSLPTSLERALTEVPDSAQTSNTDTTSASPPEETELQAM
The experiment in a line: Intracellular calcium measurements (FLIPR), agonistic activity in HEK293-hFPRL2-Gα16 cells. The class given is cell-based. Particulars: Fluo-4 calcium FLIPR, normalized to GLY14-Humanin 100 nM. In short, it runs like this:
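Peak values after baseline subtraction are expressed relative to 100 nM Gly14-Humanin; compounds diluted in assay buffer from 10 mM DMSO stocks.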
(A change in cytosolic calcium serves as a functional read-out for many receptors and channels.)

The target in the next experiment is T2, human ALX receptor (Homo sapiens, UniProt P25090).
T2 construct: expressed in transfected cells; host or cells: HEK293 (HEK293-hALXR-Gα16)
T2 sequence (P25090 1-351): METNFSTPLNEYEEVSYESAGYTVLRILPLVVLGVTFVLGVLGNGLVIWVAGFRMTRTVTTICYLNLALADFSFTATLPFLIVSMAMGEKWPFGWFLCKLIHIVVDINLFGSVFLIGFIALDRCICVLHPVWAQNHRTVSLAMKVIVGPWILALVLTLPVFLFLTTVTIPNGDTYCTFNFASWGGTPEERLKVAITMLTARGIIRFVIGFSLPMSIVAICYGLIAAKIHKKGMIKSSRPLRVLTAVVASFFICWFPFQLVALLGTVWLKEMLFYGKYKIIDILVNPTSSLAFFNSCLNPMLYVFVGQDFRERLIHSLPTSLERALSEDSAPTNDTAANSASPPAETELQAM
The experiment in a line: Intracellular calcium measurements (FLIPR), agonistic activity in HEK293-hALXR-Gα16 cells. In kind it is cell-based. As to conditions: Fluo-4 calcium FLIPR, normalized to WKYMVm 10 nM. In short, it runs like this: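 HEK293 cells expressing hALXR and Gα16 were loaded with 1 μM Fluo-4 AM and 20 mM HEPES for 60 min at 37°C, then exposed to serially diluted compound. FLIPR fluorescence was read at ex 488/em 540 nm. Baseline-subtracted peak responses were normalized to 10 nM WKYMVm.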

The structures appear in SMILES notation.

Consider `CC(C)CNC(=O)[C@H]1[C@H](C(=O)Nc2ccc(Br)cc2)[C@@H]2C=C[C@H]1C21CC1` (racemic) [Example 4, (5R*)—N^5-(4-Bromophenyl)-(6R*)—N^6-(3-isobutyl)-(4S*,7R*)-[4,7-ethenylene-spiro[2.4]heptane]-5,6-dicarboxamide], for which the EC50 amounted to 5310 nM on human FPRL2 and 0.24 nM on human ALX receptor.

For the compound `NC(=O)CCNC(=O)[C@H]1[C@H](C(=O)NCc2ccc(Br)cc2)[C@@H]2C=C[C@H]1C21CC1` [Example 241, (5R)—N^5-(4-Bromo-phenyl-methyl)-(6R)—N^6-(3-amino-3-oxopropyl)-(4S,7R)-[4,7-ethenylene-spiro[2.4]heptane]-5,6-dicarboxamide], the EC50 was more than 25000 nM at human FPRL2 and 240 nM at human ALX receptor.

Take `O=C(NCCCCN1CCCC1)C1C(C(=O)Nc2ccc(Br)cn2)C2C=CC1C21CC1` (racemic) [Example 119, (5R*)—N^5-(5-Bromo-pyridin-2-yl)-(6R*)—N^6-(4-pyrrolidin-1-yl-butyl)-(4S*,7R*)-[4,7-ethenylene-spiro[2.4]heptane]-5,6-dicarboxamide]: the EC50 on human FPRL2 is 404 nM; at human ALX receptor, 17 nM.

For the compound `CC(=O)c1csc(CNC(=O)[C@H]2[C@H](C(=O)NCCCN3CCCC3)[C@H]3C=C[C@@H]2C32CC2)n1` (racemic) [Example 264, (5R*)—N^5-(4-Acetyl-thiazol-2-yl-methyl)-(6R*)—N^6-(3-pyrrolidino-propyl)-(4S*,7R*)-[4,7-ethenylene-spiro[2.4]heptane]-5,6-dicarboxamide], the EC50 at human FPRL2 came to 835 nM; at human ALX receptor, 140 nM.

In the case of `NC(=O)CCNC(=O)[C@H]1[C@H](C(=O)NCc2cnc(Br)s2)[C@@H]2C=C[C@H]1C21CC1` [Example 283, (5R)—N^5-(2-Bromothiazol-5-yl-methyl)-(6R)—N^6-(3-amino-3-oxopropyl)-(4S,7R)-[4,7-ethenylene-spiro[2.4]heptane]-5,6-dicarboxamide], the concentration giving a half-maximal response (EC50) is more than 25000 nM on human FPRL2 and 884 nM on human ALX receptor.

On to `O=C(N[C@H]1CC[C@H](O)CC1)[C@H]1[C@H](C(=O)Nc2ncc(Br)s2)[C@@H]2CC[C@H]1C21CC1` [Example 408, (5R)—N^5-(5-Bromothiazol-2-yl)-(6R)—N^6-(4-hydroxy-cyclohexyl)-(4S,7R)-[4,7-ethylene-spiro[2.4]heptane]-5,6-dicarboxamide], for which the EC50 was found to be 16300 nM at human FPRL2 and 69 nM at human ALX receptor.

In the case of `O=C(NCC1CCCN1)[C@H]1[C@H](C(=O)Nc2ncc(Br)s2)[C@@H]2CC[C@H]1C21CC1` (stereo partly drawn) [Example 416, (5R)—N^5-(5-Bromothiazol-2-yl)-(6R)—N^6-[(pyrrolidin-2-yl)-methyl]-(4S,7R)-[4,7-ethylene-spiro[2.4]heptane]-5,6-dicarboxamide], the EC50 turned out to be 479 nM on human FPRL2 and 8.3 nM on human ALX receptor.

For the compound `O=C(NCCCN1CCCC1)[C@H]1[C@H](C(=O)Nc2ccc(Br)cc2)[C@@H]2C=C[C@H]1C21CC1` (racemic) [Example 30, (5R*)—N^5-(4-Bromophenyl)-(6R*)—N^6-(3-pyrrolidin-1-yl-propyl)-(4S*,7R*)-[4,7-ethenylene-spiro[2.4]heptane]-5,6-dicarboxamide], the concentration for a half-maximal effect (EC50) worked out at 405 nM at human FPRL2 and 4.9 nM on human ALX receptor.

Consider `CC(=O)c1csc(NC(=O)[C@H]2[C@H](C(=O)NCCCCN3CCCC3)[C@H]3C=C[C@@H]2C32CC2)n1` (racemic) [Example 344, (5R*)—N^5-(4-Acetyl-thiazol-2-yl)-(6R*)—N^6-(4-pyrrolidino-butyl)-(4S*,7R*)-[4,7-ethenylene-spiro[2.4]heptane]-5,6-dicarboxamide], for which the results for the EC50 at human FPRL2 and on human ALX receptor were 414 nM and 7850 nM, respectively.

With `Cc1nsc2ccc(NC(=O)[C@H]3[C@H](C(=O)NCCCCN4CCCC4)[C@H]4C=C[C@@H]3C43CC3)cc12` (racemic) [Example 146, (5R*)—N^5-(3-Methyl-benzo[d]isothiazol-5-yl)-(6R*)—N^6-(4-pyrrolidin-1-yl-butyl)-(4S*,7R*)-[4,7-ethenylene-spiro[2.4]heptane]-5,6-dicarboxamide], the EC50 came out at 337 nM on human FPRL2 and 4420 nM on human ALX receptor.

With `CN(C)CC(=O)NC[C@H]1[C@H](C(=O)Nc2ccc(Br)cc2)[C@@H]2C=C[C@H]1C21CC1` (racemic) [Example 181, (5R*)—N^5-(4-Bromo-phenyl)-(6R*)-6-[(2-(N,N-dimethyl-amino)-acetylamino)-methyl]-(4S*,7R*)-[4,7-ethenylene-spiro[2.4]heptane]-5-carboxamide], the results for the concentration for a half-maximal effect (EC50) at human FPRL2 and at human ALX receptor were 2050 nM and 265 nM, respectively.

Take `O=C(NCCCCN1CCCC1)C1C(C(=O)NCc2ccc(Br)cc2)C2C=CC1C21CC1` (racemic) [Example 118, (5R*)—N^5-(4-Bromophenyl-methyl)-(6R*)—N^6-(4-pyrrolidin-1-yl-butyl)-(4S*,7R*)-[4,7-ethenylene-spiro[2.4]heptane]-5,6-dicarboxamide]: the concentration for a half-maximal effect (EC50) came to 140 nM at human FPRL2 and 47 nM on human ALX receptor.

With `O=C(CCCN1CCCC1)NC[C@H]1[C@H](C(=O)Nc2ccc(Br)cc2)[C@@H]2C=C[C@H]1C21CC1` (racemic) [Example 177, (5R*)—N^5-(4-Bromo-phenyl)-(6R*)-6-[(4-pyrrolidin-1-yl-butanoylamino)-methyl]-(4S*,7R*)-[4,7-ethenylene-spiro[2.4]heptane]-5-carboxamide], the figures for the EC50 at human FPRL2 and at human ALX receptor were 446 nM and 160 nM, respectively.

Take `CCN1CCN(CCCCNC(=O)[C@H]2[C@H](C(=O)Nc3ccc(Br)cc3)[C@@H]3C=C[C@H]2C32CC2)CC1` [Example 208, (5R)—N^5-(4-Bromophenyl)-(6R)—N^6-(4-(4-ethyl-piperazin-1-yl)-butyl)-(4S,7R)-[4,7-ethenylene-spiro[2.4]heptane]-5,6-dicarboxamide]: the EC50 at human FPRL2 is 15 nM; on human ALX receptor it was 2.3 nM.

Consider `O=C(NC[C@H]1[C@H](C(=O)Nc2ccc(Br)cc2)[C@@H]2C=C[C@H]1C21CC1)C1CCCC1` (racemic) [Example 179, (5R*)—N^5-(4-Bromo-phenyl)-(6R*)-6-{[(cyclopentyl-carbonyl)-amino]-methyl}-(4S*,7R*)-[4,7-ethenylene-spiro[2.4]heptane]-5-carboxamide], for which the EC50 at human FPRL2 was 1380 nM; at human ALX receptor, 200 nM.

On to `CN1CCCC1CCNC(=O)C1C(C(=O)Nc2ccc(Br)cc2)C2C=CC1C21CC1` (mixture of isomers) [Example 33, (5R*)—N^5-(4-Bromophenyl)-(6R*)—N^6-(2-(1-methyl-pyrrolidin-2-yl)-ethyl)-(4S*,7R*)-[4,7-ethenylene-spiro[2.4]heptane]-5,6-dicarboxamide], for which the EC50 at human FPRL2 amounted to 4100 nM; at human ALX receptor it was 5.8 nM.

For `Cc1nc(CCNC(=O)C2C(C(=O)Nc3ccc(Br)cc3)C3CCC2C32CC2)[nH]c1C` (stereo not drawn) [Example 112, (5R*)—N^5-(4-Bromophenyl)-(6R*)—N^6-(2-(4,5-dimethyl-1H-imidazol-2-yl)-ethyl)-(4S*,7R*)-[4,7-ethylene-spiro[2.4]heptane]-5,6-dicarboxamide], the EC50 came to 57 nM on human FPRL2 and 8.3 nM on human ALX receptor.

Take `O=C(NCCCCN1CCOCC1)[C@H]1[C@H](C(=O)Nc2ccc(Br)cc2)[C@@H]2C=C[C@H]1C21CC1` [Example 211, (5R)—N^5-(4-Bromophenyl)-(6R)—N^6-(4-morpholino-butyl)-(4S,7R)-[4,7-ethenylene-spiro[2.4]heptane]-5,6-dicarboxamide]: the EC50 at human FPRL2 stood at 423 nM; on human ALX receptor it was 0.53 nM.

Regarding `O=C(NCCN1CCOCC1)[C@H]1[C@H](C(=O)Nc2ccc(Br)cc2)[C@@H]2C=C[C@H]1C21CC1` (racemic) [Example 80, (5R*)—N^5-(4-Bromophenyl)-(6R*)—N^6-(2-morpholino-ethyl)-(4S*,7R*)-[4,7-ethenylene-spiro[2.4]heptane]-5,6-dicarboxamide], the EC50 came out at 7870 nM on human FPRL2 and 97 nM at human ALX receptor.

For `CCCCNC(=O)[C@H]1[C@H](C(=O)NCCCCN2CCCC2)[C@H]2C=C[C@@H]1C21CC1` (racemic) [Example 136, (5R*)—N^5-Butyl-(6R*)—N^6-(4-pyrrolidin-1-yl-butyl)-(4S*,7R*)-[4,7-ethenylene-spiro[2.4]heptane]-5,6-dicarboxamide], the EC50 was determined as 1180 nM on human FPRL2 and 365 nM at human ALX receptor.

For the compound `O=C(NCCO)[C@H]1[C@H](C(=O)Nc2ncc(Br)s2)[C@@H]2CC[C@H]1C21CC1` [Example 403, (5R)—N^5-(5-Bromothiazol-2-yl)-(6R)—N^6-(2-hydroxyethyl)-(4S,7R)-[4,7-ethylene-spiro[2.4]heptane]-5,6-dicarboxamide], the EC50 on human FPRL2 turned out to be 21400 nM; on human ALX receptor, 158 nM.
